For experiment [1], the system named is ex vivo stimulated LTB4 production. Briefly: Murine arachidonic acid-induced inflammation model: ex vivo stimulated LTB4 production in blood. Particulars: Mus musculus; 30 mg/kg oral gavage, female Balb/c mice; blood taken 3 h after arachidonic acid, stimulated ex vivo with A23187; read-out: % Inh. LTB4. On the procedure:
(§1) Murine Arachidonic Acid-Induced Inflammation Model
(§2) LTA4H inhibitor compounds of the present invention were dissolved in 20% cyclodextran/H2O at a concentration of 3 mg/mL. The solutions were administered by oral gavage to female Balb/c mice weighing approximately 20 grams each (0.2 mL per mouse, 30 mg of LTA4H inhibitor compound per kg). Sixty minutes after being administered an LTA4 inhibitor, each mouse received topical application of 20 μL of arachidonic acid (100 mg/mL in acetone) to the left ear and 20 μL of acetone only to the right ear. After 3 h, the mice were sacrificed, blood was withdrawn in heparinized syringes, and 8 mm ear biopsies were taken. Ear biopsies were weighed to determine edema and then frozen at −80° C. until needed for determination of neutrophil influx.
One hundred-microliter aliquots of heparinized blood were added to wells of a microtiter plate, along with equal volumes of RPMI-1640 medium, and calcium ionophore A23187 was added to each sample well (final concentration=[…]). The microtiter plate contents were incubated for 10 min at 37° C. in a humidified incubator. The reaction was terminated by centrifugation (833×g, 10 min at 4° C.). Supernatants were analyzed for LTB4 by a commercially available enzyme-linked immunoassay (Cayman Chemical Co.) in accordance with the manufacturer's instructions. The percent inhibition of ex vivo stimulated LTB4 production (% Inh. LTB4) was determined by comparison to animals treated identically except that the solution admininstered by oral gavage was devoid of inhibitor compound.

Experiment [2] deals with T1, recombinant human LTA4 hydrolase (rhLTA4H) (Homo sapiens, UniProt P09960).
T1 construct: made in house; host or cells: Spodoptera frugiperda (Sf-9) cells, baculovirus (pFastBac1)
T1 sequence (P09960 1-611): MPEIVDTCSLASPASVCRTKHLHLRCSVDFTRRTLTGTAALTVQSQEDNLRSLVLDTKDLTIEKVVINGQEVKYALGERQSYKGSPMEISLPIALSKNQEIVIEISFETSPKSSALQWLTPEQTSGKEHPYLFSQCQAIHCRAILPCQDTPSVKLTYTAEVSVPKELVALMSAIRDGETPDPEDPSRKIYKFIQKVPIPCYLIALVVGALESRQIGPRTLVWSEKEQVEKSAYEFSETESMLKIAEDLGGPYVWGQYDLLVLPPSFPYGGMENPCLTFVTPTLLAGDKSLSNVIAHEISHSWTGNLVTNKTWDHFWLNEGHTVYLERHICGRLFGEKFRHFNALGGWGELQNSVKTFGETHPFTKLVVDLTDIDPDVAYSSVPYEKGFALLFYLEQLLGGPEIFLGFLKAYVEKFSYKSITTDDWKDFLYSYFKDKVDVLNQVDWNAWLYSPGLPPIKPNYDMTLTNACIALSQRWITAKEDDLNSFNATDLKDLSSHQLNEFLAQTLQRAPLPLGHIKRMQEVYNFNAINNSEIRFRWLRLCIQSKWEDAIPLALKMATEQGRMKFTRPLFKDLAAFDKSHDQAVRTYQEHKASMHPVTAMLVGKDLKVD
Description: Recombinant human LTA4 hydrolase assay for LTA4 hydrolase inhibitor activity. As to conditions: recombinant human LTA4H, LTB4 quantified by enzyme-linked immunoassay; average of one to three determinations; read-out: IC50. Type of experiment: biochemical. In outline:
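Sf-9-expressed rhLTA4H (36 ng) preincubated 10 min at rt with compound in 0.1 M potassium phosphate pH 7.4, 5 mg/mL fatty-acid-free BSA; 9 ng LTA4 free acid added, 10 min at rt in 225 μL. LTB4 measured by enzyme immunoassay; IC50 from 4-parameter fit, mean of one to three determinations.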

The test system of experiment [3] is neutrophil influx (myeloperoxidase, MPO). Briefly: Murine arachidonic acid-induced inflammation model: neutrophil influx in ear (myeloperoxidase activity). Type of experiment: in vivo, female Balb/c mice. Particulars: Mus musculus, read-out: % Inh. MPO. On the procedure: as §1, §2
Neutrophil influx was quantified by measuring the activity of myeloperoxidase (MPO), a neutrophil-specific enzyme. The ear biopsies were homogenized in 0.5 mL extraction buffer (0.3 M sucrose, 0.22% (w/v) hexadecyl trimethyl ammonium bromide (CTAB), and 2.5 mM citrate prepared from 0.5 M citrate stock solution (pH 5.0)). Debris was removed by centrifugation at 14000×g for 10 min. Aliquots of 10 μL of the resulting supernatant were added to wells of a microtiter plate, along with 90-μL aliquots of dilution buffer (10 mM citrate, 0.22% CTAB), followed by addition of 20 μL TMB liquid substrate system (Sigma Chemical Co.) to each sample well. The microtiter plate contents were held at rt for 1 h. The reaction was stopped by addition of 100 μL 1 M H2SO4 to each sample well, and the myeloperoxidase activity in each sample was determined from the absorbance at 405 nm. The background value from the right ear, treated only with acetone, was subtracted from that for the left ear, treated with arachidonic acid in acetone, for each animal. The percent inhibition of neutrophil influx (% lnh. MPO) by compounds of the invention was determined by comparison to animals treated identically, except that the solution administered by oral gavage was devoid of inhibitor compound.

The test system of experiment [4] is ionophore-induced LTB4 production. Particulars: oral administration; cited from earlier work.
The subject of another experiment is colitis symptoms. As to conditions: eight weeks of treatment, cotton top tamarins; cited from earlier work.
For experiment [5], the system named is ionophore-induced LTB4 production. Particulars: oral administration; cited from earlier work. This is another data set of the same source.

Like-named read-outs stand apart in the source and are kept apart here.

The term IC50 denotes the concentration that gives 50% inhibition. `O=C(Nc1ccccc1)Oc1ccc(CCN2CCCCC2)cc1` [Example 52, Phenyl-carbamic acid 4-(2-piperidin-1-yl-ethyl)-phenyl ester]: in experiment [1], the inhibition at 30 mg/kg was 80%. In experiment [2], the IC50 stood at 3 nM. The inhibition in vivo at 30 mg/kg in experiment [3] (po, 3 h) worked out at 87%.

As for `O=C(O)CCN(CCc1ccc(OCCc2ccccc2)cc1)C1CCCCC1` [Example 89, 3-{Cyclohexyl-[2-(4-phenethyloxy-phenyl)-ethyl]-amino}-propionic acid], the inhibition at 30 mg/kg in experiment [1] was determined as 36%. For the same compound, the IC50 in experiment [2] was determined as 7 nM. Further, the inhibition in vivo at 30 mg/kg in experiment [3] (30 mg/kg oral gavage 60 min before topical arachidonic acid to ear, female Balb/c mice, ear biopsies after 3 h) was determined as 41%.

In the case of `CN(CCCOc1ccc(Cc2ccccc2)cc1)CCC(=O)O.Cl` [SC57461], the “inhibition of ionophore-induced LTB4 production in mouse blood ex vivo” value in experiment [4] was “caused inhibition”. In addition, the colitis symptoms result with colitis symptoms was “significantly improved colitis symptoms”. The “inhibition of ionophore-induced LTB4 production in rat peritoneum in vivo” value in experiment [5] was “caused inhibition”.

The values above are taken from patent US20060223792A1, “Phenyl and pyridyl LTA4H modulators” (priority 2005, published 2006).
